Measured values from patent publication US9492554B2, “Methods and compositions related to viral inhibition” (Clemson University Research Foundation (CURF), priority 2009, dated 2016).

How the values were obtained:
HIV-1 TAR RNA = HIV-1 TAR RNA competition FRET binding assay (Tat peptide probe); conditions: 100 nM TAR RNA, 100 nM Tat peptide, 25° C., 60 min
Description: Before used, HIV-1 TAR RNA (5′-GGC AGA UCUGAG CCU GGG AGC UCU CUG CC-3′, Thermo Scientific) in 10 μM batch in sterile water was heated to 95° C. for 4.5 min, and then cooled rapidly in ice bath for 5 min. This snap-cooling causes the RNA to adopt the kinetically favored hairpin rather than thermodynamically favored duplexes.
The relative affinity of each polyamine for HIV-1 TAR RNA was determined using Fluorescence Resonance Energy Transfer (FRET)-based competitive binding assay with a fluorescein-labeled HIV-1 Tat peptide as described in the literature. The fluorescence experiments were performed with a Spectra Max Fluorimeter (Molecular Devices) at 25° C., with excitation and emission wavelengths of 495 and 570 nm, respectively. All samples were prepared in 96 well plates in 1×TK buffer (50 mM Tris, 20 mM KCl, pH=7.4) with 0.1% Trixton-100 (Sigma).
To a solution of 100 nM HIV-1 TAR RNA and 100 nM fluorescein-labeled HIV-1 Tat peptide, appropriate concentrations (0 nM to 100 μM) of the antagonists were added at 25° C.; total volume of the incubation solution was 80 μL. After 60 min, fluorescence changes of the sample solution were determined by the Spectra Max Fluorimeter Detector.

TAR RNA = assay: UV melting of TAR RNA in presence of ligands (Tm, ΔTm); format: binding, HIV-1; conditions: for ΔTm (° C.): TAR RNA with ligand vs control, Table 10; for Tm (° C.): TAR RNA with ligand, control without ligand 69.3
Description: The reactions were done in the presence of 10 mM sodium cacodylate, 0.5 mM EDTA, 0.1 mM MgCl2 pH 7.0. The heating rate was 0.3° C./min.
UV melting studies of TAR were performed in the presence and absence of various ligands (FIG. 13).

HIV-1 RRE RNA = HIV-1 RRE RNA competition binding assay (fluorescence polarization, Rev peptide probe); conditions: 100 nM RRE RNA, 10 nM Rev peptide, 25° C., 1 hour; Table 16
Description: Before used, HIV-1 RRE RNA (5′-GGUCUGGGCGCAGCGCAAGCUGACGGUACAGGCC-3′, Thermo Scientific) in 10 μM batch in sterile water was heated to 95° C. for 3 min, and then cooled to ambient temperature over 1 hour.
The relative affinity of each compound for HIV-1 RRE RNA was determined using fluorescence polarization-based competitive binding assay with a fluorescein-labeled HIV-1 Rev peptide. The anisotropy experiments were performed with a Spectra Max Fluorimeter (Molecular Devices) at 25° C., with excitation and emission wavelengths of 485 and 525 nm, respectively. All samples were prepared in 96 well plates in binding buffer (30 mM Hepes, 100 mM KCl, 40 mM NaCl, 10 mM NH4OAc, 10 mM Guanidinium Hydrochloride, 2 mM MgCl2, 0.5 mM EDTA, pH 7.4) with 0.01% triton-X100 (Sigma). The binding data reported for each conjugate are the averages of 3˜5 individual measurements.
A solution of 100 nM RRE RNA and 10 nM fluorescein-labeled HIV-1 Rev peptide was incubated at 25° C. After 10 min, appropriate concentrations (0 nM to 500 μM) of the antagonists were added; total volume of the incubation solution was […]. After 1 hour, the amount of the dissociated fluorescent probe was determined by the Spectra Max fluorescence plate reader. The experimental dose-response data for a given antagonist were fit to a sigmoidal dose-response nonlinear regression model on GraphPad Prism 4.0 to afford the IC50 values for each conjugates (Table 16).

HIVNL4-3 in MT-2 cells [1] = assay: Release of reverse transcriptase into the culture supernatant; format: cell-based, HIV
Description: The disclosed conjugates also reduce the amount of reverse transcriptase (RT) released into the cell culture supernatant upon in vitro cell culture experiments (Table 14 below). […] It is possible that even though the cells are positive for HIV, they are making much fewer unspliced transcripts, and thus the virion release into the media remains suppressed. […] Anti-HIV activities can be routinely checked by measuring the percentage of cells positive for HIV antigens using immunofluorescence assay (IFA) and for the release of pelletable reverse transcriptase (RT) into the supernatant. For these assays, 500,000 MT-2 cells in 1 ml of media were added to the wells of a 24 well tissue culture plate. Next, 0.5 ml of 4× concentrated compound was added to triplicate wells of the plate. The cells and compounds were incubated for 1 hr at 37 C. Finally, 0.5 ml of HIVNL4-3, produced in H9 cells (a CD4+ lymphoblastoid cell line), 100,000 cpm of RT activity per well, was added to each well. Virus control wells contained no compounds. This inoculum is at a multiplicity of infection less than 1. […] Next, cells were resuspended in the media and 0.5 mls of the total remaining volume was removed for IFA. Cells were combined from their triplicate infections, pelleted, and the enriched cells were air-dried onto glass slides. The dried cells were fixed in acetonemethanol (50:50). After fixing, cells were stained with HIV immunoglobulin, washed in PBS, and counter-stained with FITC-conjugated goat and human IgG. Slides were washed in PBS and the percentage of HIV-positive cells was determined by epifluorescence (Robinson et al. […] The supernatants from each well were precipitated at 4 C overnight in a solution including 30% polyethylene glycol. After precipitation, precipitate was lysed in a solution containing Triton X100, Tris buffer, and DTT. RT activity of each aliquot was determined as incorporation of 3H-dTTP into a poly rA-oligo dT template. After a one hour assay at 37 C, the incorporated dTTP was precipitated onto a ZetaProbe (BioRad) membrane. Slots were excised and placed into liquid scintillation cocktail. After overnight incubation, counts per minute for each sample was determined on a beta counter. Results were calculated as cpm/ml of original culture supernatant (Robinson et al.

HIVNL4-3 in MT-2 cells [2] = assay: HIV antigen synthesis in treated cells, immunofluorescence assay (IFA); format: cell-based
Description: Anti-HIV activities can be routinely checked by measuring the percentage of cells positive for HIV antigens using immunofluorescence assay (IFA) and for the release of pelletable reverse transcriptase (RT) into the supernatant. For these assays, 500,000 MT-2 cells in 1 ml of media were added to the wells of a 24 well tissue culture plate. Next, 0.5 ml of 4× concentrated compound was added to triplicate wells of the plate. The cells and compounds were incubated for 1 hr at 37 C. Finally, 0.5 ml of HIVNL4-3, produced in H9 cells (a CD4+ lymphoblastoid cell line), 100,000 cpm of RT activity per well, was added to each well. Virus control wells contained no compounds. This inoculum is at a multiplicity of infection less than 1. On days 2, 4, and 6, 0.75 mls of supernatants were removed and placed into individual microfuge tubes for RT assay. Next, cells were resuspended in the media and 0.5 mls of the total remaining volume was removed for IFA. Cells were combined from their triplicate infections, pelleted, and the enriched cells were air-dried onto glass slides. The dried cells were fixed in acetonemethanol (50:50). After fixing, cells were stained with HIV immunoglobulin, washed in PBS, and counter-stained with FITC-conjugated goat and human IgG. Slides were washed in PBS and the percentage of HIV-positive cells was determined by epifluorescence (Robinson et al. J Acquire Immune Defic Syndr 2:33-42, 1989).

Row | SMILES | 5% Toxicity microM (cells) [µM] | IC50 (HIV-1 TAR RNA; Table 17) [µM] | ΔTm (° C.) (TAR RNA) [°C] | Tm (° C.) (TAR RNA) [°C] | IC50 (HIV-1 TAR RNA; Table 18) [µM] | IC50 (HIV-1 RRE RNA) [µM] | Release of reverse transcriptase into the culture supernatant, Day 2 (HIVNL4-3 in MT-2 cells [1]; Day 2, mean of triplicate infections (SD), microM: DPA119 24, DPA52 25, DPA53 9, DPA54 17, DPA55 4, DPA56 8, DPA121 25, virus control 46,029) | Release of reverse transcriptase into the culture supernatant, Day 4 (HIVNL4-3 in MT-2 cells [1]; Day 4, mean of triplicate infections, virus control 928,112) | Release of reverse transcriptase into the culture supernatant, Day 6 (HIVNL4-3 in MT-2 cells [1]; Day 6, mean of triplicate infections, virus control 1,078,741) | percentage of cells positive for HIV antigens, Day 2 (HIVNL4-3 in MT-2 cells [2]; Day 2, MT-2 cells, microM: DPA119 24, DPA52 25, DPA53 9, DPA54 17, DPA55 4, DPA56 8, DPA121 25, virus control 15%) | percentage of cells positive for HIV antigens, Day 4 (HIVNL4-3 in MT-2 cells [2]; Day 4, same concentrations, virus control 100%) [%] | percentage of cells positive for HIV antigens, Day 6 (HIVNL4-3 in MT-2 cells [2]; Day 6, same concentrations, virus control 100%) [%]
1 | CN1CCN(c2ccc3nc(-c4ccc(OCCn5cc(-c6ccc(-c7cn(C[C@H]8OC(OC9C(O)[C@H](N)CC(N)[C@H]9O[C@H]9OC(CN)[C@@H](O)C(O)C9N)C(O)C8O[C@H]8OC(CN)[C@@H](O)C(O)C8N)nn7)cc6)nn5)cc4)[nH]c3c2)CC1 (stereo partly shown) [DPA118] | >184 | 12.1 ± 5.4 | 4.8 | 74.1 |  |  |  |  |  |  |  | 
2 | CN1CCN(c2ccc3nc(-c4ccc(OCc5cn(C[C@H]6OC(OC7C(O)[C@H](N)CC(N)[C@H]7O[C@H]7OC(CN)[C@@H](O)C(O)C7N)C(O)C6O[C@H]6OC(CN)[C@@H](O)C(O)C6N)nn5)cc4)[nH]c3c2)CC1 (stereo partly shown) [DPA123] |  |  |  |  | 0.155 ± 0.049 | 0.768 ± 0.309 |  |  |  |  |  | 
3 | CN1CCN(c2ccc3nc(-c4ccc(OCc5cn(CCCCCCCCCCn6cc(CCCCc7cn(C[C@H]8OC(OC9C(O)[C@H](N)CC(N)[C@H]9O[C@H]9OC(CN)[C@@H](O)C(O)C9N)C(O)C8O[C@H]8OC(CN)[C@@H](O)C(O)C8N)nn7)nn6)nn5)cc4)[nH]c3c2)CC1 (stereo partly shown) [DPA117] | 41 | 1.3 ± 0.2 | 6.3 | 75.6 |  | 15.5 ± 6.3 |  |  |  |  |  | 
4 | CN1CCN(c2ccc3nc(-c4ccc(OCCn5cc(CCCc6cn(C[C@H]7OC(OC8C(O)[C@H](N)CC(N)[C@H]8O[C@H]8OC(CN)[C@@H](O)C(O)C8N)C(O)C7O[C@H]7OC(CN)[C@@H](O)C(O)C7N)nn6)nn5)cc4)[nH]c3c2)CC1 (stereo partly shown) [DPA120] | 94 | 1.7 ± 0.3 | 3.9 | 73.2 |  | 15.3 ± 6.9 |  |  |  |  |  | 
5 | CN1CCN(c2ccc3nc(-c4ccc(OCCn5cc(CCCCCCc6cn(C[C@H]7OC(OC8C(O)[C@H](N)CC(N)[C@H]8O[C@H]8OC(CN)[C@@H](O)C(O)C8N)C(O)C7O[C@H]7OC(CN)[C@@H](O)C(O)C7N)nn6)nn5)cc4)[nH]c3c2)CC1 (stereo partly shown) [DPA122] | 46 | 0.825 ± 0.145 | 5.4 | 74.8 |  | 0.0054 ± 0.0024 |  |  |  |  |  | 
6 | CN1CCN(c2ccc3nc(-c4ccc(OCc5cn(CCCCCCCCn6cc(CCCCc7cn(C[C@H]8OC(OC9C(O)[C@H](N)CC(N)[C@H]9O[C@H]9OC(CN)[C@@H](O)C(O)C9N)C(O)C8O[C@H]8OC(CN)[C@@H](O)C(O)C8N)nn7)nn6)nn5)cc4)[nH]c3c2)CC1 (stereo partly shown) [DPA116] | 83 | 4.3 ± 0.6 | 3.8 | 73.1 |  |  |  |  |  |  |  | 
7 | CN1CCN(c2ccc3nc(-c4ccc(OCc5cn(CCCCCCn6cc(CCCCc7cn(C[C@H]8OC(OC9C(O)[C@H](N)CC(N)[C@H]9O[C@H]9OC(CN)[C@@H](O)C(O)C9N)C(O)C8OC8OC(CN)C(O)C(O)C8N)nn7)nn6)nn5)cc4)[nH]c3c2)CC1 (stereo partly shown) [DPA114] | 11 | 11.6 ± 2.3 | 3.8 | 73.1 |  |  |  |  |  |  |  | 
8 | C/C(CCc1cn(C[C@H]2O[C@@H](O[C@H]3C(O[C@H]4OC(CN)C(O)[C@H](O)C4N)C(N)C[C@@H](N)C3O)[C@@H](O)C2O[C@H]2O[C@@H](CN)C(O)C(O)C2N)nn1)=C(/C)CCc1cn(C[C@H]2O[C@@H](O[C@H]3C(O[C@H]4OC(CN)C(O)[C@H](O)C4N)C(N)C[C@@H](N)C3O)[C@@H](O)C2O[C@H]2O[C@@H](CN)C(O)C(O)C2N)nn1 (stereo partly shown) [DPA 55] | 8 |  |  |  |  |  | 20,072 (3,748) cpm/ml | 107,933 cpm/ml | 305,277 cpm/ml | 3-5% | 30 | 100
9 | CN1CCN(c2ccc3nc(-c4ccc(OCc5cn(CCn6cc(CCCCc7cn(C[C@H]8OC(OC9C(O)[C@H](N)CC(N)[C@H]9O[C@H]9OC(CN)[C@@H](O)C(O)C9N)C(O)C8O[C@H]8OC(CN)[C@@H](O)C(O)C8N)nn7)nn6)nn5)cc4)[nH]c3c2)CC1 (stereo partly shown) [DPA113] | 176 | 61.3 ± 18.1 | 3.1 | 72.4 |  |  |  |  |  |  |  | 
